Legend:
[1] = Artemether via nasal delivery system in vivo; settings: administered locally via nasal delivery system in vivo
SARS-CoV2 [2] = assay: In-vitro experiments, time of drug addition relative to infection; assay type: cell-based; settings: added between 3 hours pre-infection and 3 hours after infection
Description: Less inhibition was detected when the drug was added after 12 hours post-infection (Our observation was consistent with the report by Agostini et al regarding GS-5734 (remdesivir) (Agostini M L, Andres E L, Sims A C, Graham R L, Sheahan T P, Lu X, Smith E C, Case J B, Feng J Y, Jordan R, Ray AS, Cihlar T, Siegel D, Mackman R L, Clarke M O, Baric R S, Denison M R. 2018. Coronavirus susceptibility to the antiviral remdesivir (GS-5734) is mediated by the viral polymerase and the proofreading exoribonuclease. mBio 9:e00221-18. https://doi.org/10.1128/mBio.00221-18.).
(§1) In carrying out the in vitro experiments, vero E6 cells (an African green monkey kidney cell line) were infected with SARS-CoV2 at a multiplicity of infection of 0.5 for 1 hour. The cells were washed with PBS and then incubated in OPTI-MEM (Invitrogen) medium with or without various concentrations of the following drug candidates: Artemether (from BiopharmaRx) Hydroxychloroquine (from Sigma Aldrich), Atazanavir (from Sigma Aldrich), and Efavirenz (from Sigma Aldrich), Fosamprenavir Calcium (from Sigma Aldrich), Saquinavir (from Sigma Aldrich) and Remdesivir (from AOBIOUS, INC., USA)

[3] = Peak Inhibitory Concentration (Threshold) after oral administration
Description: It is noted that the Peak Inhibitory Concentration (Threshold) of Artemether and Remdesivir were at 120 minutes after oral administration. The Peak Inhibitory Concentration (Threshold) of Lumefantrine was at 60 minutes after oral administration.

SARS-CoV2 [4] = assay: Drug added to Vero E6 cells immediately after SARS-CoV2 adsorption, indirect immunofluorescence after 24 hours; assay type: cell-based
Description: as §1
(§2) Immunofluorescence staining was performed with SARS-CoV2-specific hyperimmune mouse ascitic fluid (HMAF) followed by anti-mouse fluorescein-coupled antibody.
The antiviral properties of artemether on SARS-CoV2 after the initiation of infection were studied. Vero E6 cells were infected with the virus and fresh medium supplemented with various concentrations of artemether was added immediately after virus adsorption. Infected cells were incubated for an additional 24 hours, after which the presence of virus antigens was analyzed by indirect immunofluorescence analysis. When artemether was added after the initiation of infection, there was a dramatic dose dependent decrease in the number of virus antigen-positive cells. […] A half-maximal inhibitory effect was estimated to occur at 16.5±1.0 μM artemether. […] (FIG. 2).

[5] = Dissolution test of Artemether/Lumefantrine-Remdesivir soft gel capsule; assay type: physicochemical; settings: 0.1 N. HCl with 3% Benzalkonium Chloride
Text: The soft gel capsule of Artemether and Lumefantrine is comprised: Artemether 4 to 5% w/w, Lumefantrine 20-24% w/w, Remdesivir 18-20%, non-aqueous vehicle 15-20% w/w, preservative less than 1% w/w, viscosity imparting agent 15-20% w/w, suspending agent 1 to 5% w/w and emulsifying agent 1 to 3% w/w and a process to manufacture the said preparation comprising of the following steps as given in the above Patent. • (a) Preservatives and Solid Suspending Agents were milled and sifted. • (b) Non-aqueous vehicle, viscosity imparting agent and liquid suspending agents were filtered to remove the foreign particles • (c) Additional steps for mixing preservatives and suspending agents: • (i) Preservatives were dissolved in non-aqueous vehicle; • (ii) Emulsifying agents were warmed and/or melted and added into mixture in (i) above; • (iii) Viscosity imparting agent is added to mixture of (ii) above and the resultant mixture is stirred. • (iv) Suspending agent is added and mixed with the mixture in (iii) above; and • (v) The mixture of (a) above and (c) (iv) above was homogenized. • (d) The mixture in (v) above was the encapsulated in soft gelatin.
Drug dissolution testing is routinely used to provide critical in vitro drug release information for both quality control purposes to predict in vivo drug release profiles.
The media for dissolution test was 0.1 N. HCl with 3% Benzalkonium Chloride.

[6] = cited from earlier work
SARS-CoV2 [7] = assay: Drug pretreatment of Vero E6 cells prior to SARS-CoV2 infection, indirect immunofluorescence; assay type: cell-based; settings: pretreatment 18-24 hours prior to virus infection
Description: as §1, §2
Experiments were carried out to determine the impact of artemether treatment on SARS-CoV2 infection. Permissive Vero E6 cells were pre-treated with various concentrations of artemether (0.1-50 μM) for 18-24 hours prior to virus infection. Cells were then infected with SARS-CoV2, and virus antigens were visualized by indirect immunofluorescence. For quantitative purposes, we counted the number of cells stained positive from three random locations on a slide. The average number of positively stained control cells was scored as 100% and was compared with the number of positive cells observed under various artemether concentrations. Pretreatment with 0.1, 1, 10, 20, 30, 40 and 50 μM artemether reduced infectivity by 4%, 12%, 32%, 45%, 63%, 92% and 100% respectively. Reproducible results were obtained from three independent experiments.

[8] = in vivo; cited from earlier work

Substance	absorption and bioavailability, nasal vs systemic administration [1]	inhibition by time of addition (SARS-CoV2 [2])	time of Peak Inhibitory Concentration (Threshold) [3] [min]	inhibition (SARS-CoV2 [4]; 40-100 μM concentrations, added after the initiation of infection)	reduced the infection (SARS-CoV2 [4]; approximately 10 μM added immediately after virus adsorption, 24 hours) [%]	IC50 (SARS-CoV2 [4]; drug added immediately after virus adsorption, Vero E6 cells, estimated, read-out: half-maximal inhibitory effect) [µM]	% Cumulative Drug Release ([5]; 60 minute time frame) [%]	% of Drug Release in a Dissolution Test ([5]; sample time 30 minute) [%]	% of Drug Release in a Dissolution Test ([5]; sample time 60 minute) [%]	% of Drug Release in a Dissolution Test ([5]; sample time 90 minute) [%]	% of Drug Release in a Dissolution Test ([5]; sample time 120 minute) [%]	solubility in water (words) [6]	reduced infectivity (SARS-CoV2 [7]; 0.1 μM) [%]	reduced infectivity (SARS-CoV2 [7]; 1 μM) [%]	reduced infectivity (SARS-CoV2 [7]; 10 μM) [%]	reduced infectivity (SARS-CoV2 [7]; 20 μM) [%]	reduced infectivity (SARS-CoV2 [7]; 30 μM) [%]	reduced infectivity (SARS-CoV2 [7]; 40 μM) [%]	reduced infectivity (SARS-CoV2 [7]; 50 μM) [%]	LD50 [8] [mg/kg]
(1R.4S,5R.8S.9R, 10S, 12R, 13R)-10-methoxy-1,5,9-trimethyl-11,14,15,16-tetraoxatetracyclo[10.3. 1.04, 13.08, 13]hexadecane [Artemether]	adsorbed quickly with more bioavailability	maximal inhibition	120	71-96%	40	16.5 ± 1	92.3	47.3	72.25	88.7	93.8	sparingly soluble	4	12	32	45	63	92	100	
Chitosan																				> 4000

— patent US12239629B2 (priority 2020, dated 2025)
